From paper PMC10028264, “Synergistic antifungal interaction of N-(butylcarbamothioyl) benzamide and amphotericin B against Cryptococcus neoformans” (Frontiers in Microbiology, 2023)
Converted amounts (≈) assume the structure as drawn. Like-named read-outs stand apart in the source and are kept apart here.

What was measured:
Assay type in all cases: cell-based
[1] = tested on: Cryptococcus neoformans biofilm; test: Antifungal activity on sessile cells, 72-h biofilm, MTT reduction (SMIC80)
Experimental: The capacity of C. neoformans strains to form biofilm was evaluated on flat-bottomed 96-well polystyrene plates (Techno Plastic Products, Switzerland), as described by [Martinez and Casadevall (2006)]. Thus, the biofilms were formed in SD broth statically at 37°C for 24, 48, 72, 96, and 120 h, with an inoculum of 1.0 × 10^7 CFU/mL. After each incubation period, the viability of sessile cells was evaluated using the 3-(4,5-dimethylthiazol-2-yl)-2,5-diphenyltetrazolium bromide (MTT, Merck, Brazil) reduction assay according to the manufacturer’s recommendations. The assays were carried out in quintuplicate and performed on two separate occasions.
To evaluate the antifungal activity of the compounds on sessile cells, biofilms were formed for 72 h, washed with saline, and 200-μL aliquots of RPMI-MOPS containing different concentrations of BTU-01 (31.25–1000.0 μg/mL) and/or AmB (0.007–16.0 μg/mL) were added for determining the SMIC (Sessile Minimal Inhibitory Concentration). Untreated and treated biofilms were incubated at 37°C for further 24 h, and then washed with saline. The biofilm viability was analyzed by the MTT reduction assay as described above. The SMICs of BTU-01 and AmB alone and combined were determined by the lowest concentration capable of inhibiting 80% (SCIM80) of the viability of sessile cells compared to the untreated controls. The checkerboard assays were performed to analyze the effect of the combination with BTU-01 and AmB on 72-h biofilms. The results of the combination were interpreted using the FICI as described previously.

Cryptococcus neoformans [2] = test: Fungal capsule and cell size (Chinese ink, light microscopy); conditions: compared to untreated cells; ATCC 34872 and 1172; 48 h; p < 0.05
Experimental: For all assays, fungal cells were incubated in RPMI-MOPS (except when specified) supplemented with BTU-01 and AmB alone at MIC and MFC values or combined at the synergistic MIC values. Untreated fungal cells were considered as control.
Cryptococcus neoformans was cultivated in a minimal capsular induction medium (15 mM glucose, 10 mM MgSO4, 29.4 mM KH2PO4, 13 mM glycine and 3 μM thiamine-HCl, pH 5.5) at 37°C for 7 days ([Frases et al., 2009]). Afterward, a standard fungal suspension was prepared as described above, and the cells (1.0 × 10^7 CFU/mL) were treated with the compounds at 37°C for 48 h. Cells were collected by centrifugation (10,000 × g, 1 min), suspended in an equal volume of Chinese ink on glass slides, spread the smear evenly with coverslips, and observed with a Zeiss Axio Imager 2 microscope (Zeiss, Germany). The capsule size of 100 randomly chosen cells was measured by using the software ImageJ 1.49v.^1 The capsule thickness was determined according to [Spadari et al. (2019)], which consisted of the difference between the diameter of the cell, including the capsule, with the diameter of the body cell within the cell wall.

[3] = tested on: Cryptococcus neoformans biofilm; test: Checkerboard assay on 72-h biofilms; conditions: 72-h biofilm
Experimental: The antifungal effect of BTU-01 combined with AmB was evaluated using the checkerboard broth microdilution assay, according to [Scott et al. (1995)]. […] The Fractional Inhibitory Concentration (FIC) of each compound was determined by the ratio of the MIC obtained when the compounds were tested in combination and the MIC of the compounds tested individually. […] Untreated and treated biofilms were incubated at 37°C for further 24 h, and then washed with saline. The biofilm viability was analyzed by the MTT reduction assay as described above. […] The checkerboard assays were performed to analyze the effect of the combination with BTU-01 and AmB on 72-h biofilms. The results of the combination were interpreted using the FICI as described previously.

Cryptococcus neoformans [4] = test: Broth microdilution MIC and MFC on planktonic cells
Experimental: Cryptococcus neoformans ATCC 34872 (serotype A), C. neoformans ATCC 66031 (serotype D), and four C. neoformans human isolates (Table 1) belonging to the microbial collection of the Laboratório de Biologia Molecular de Microrganismos of Universidade Estadual de Londrina (UEL), Londrina, Paraná, Brazil, were included in the present study. Yeasts were cultivated in Sabouraud dextrose (SD) agar at 37°C for 48 h and stored at 4°C. For the experiments, five colonies were transferred to SD broth and incubated under the same conditions. Cells were then centrifuged (10,000 × g for 1 min) and resuspended in 0.85% NaCl solution (saline) to achieve turbidity equivalent to 0.5 McFarland standard using the DensiCHEK™ PLUS colorimeter (bioMérieux), which corresponds to approximately 1.0–2.0 × 10^6 colony forming units (CFUs)/mL (standard fungal suspension). The fungal suspension was diluted in a culture medium to achieve the inoculum used in each assay. The study protocol was in accordance with the ethics committee of the UEL. The patients signed a written informed consent form agreeing with this publication (CAAE number 57452322.2.0000.5231).
Minimal inhibitory concentrations (MIC) of BTU-01 and AmB were determined by the broth microdilution method ([CLSI, 2017]). An inoculum (100 μL) of yeast cells (0.5–2.5 × 10^3 CFU/mL) was added into the wells of a U-bottom 96-well microtiter plate (Techno Plastic Products, Switzerland) containing twofold serial dilutions of BTU-01 (1.95–1000.0 μg/mL) and AmB (0.031–16.0 μg/mL) in RPMI-MOPS. Wells containing medium or medium plus DMSO 1% with or without the fungal cells were used as growth and sterility controls, respectively. Candida parapsilosis ATCC 22019 was used as quality control. […] The results of AmB were interpreted using the epidemiological cut-off values proposed in [Espinel-Ingroff et al. (2012)]. To determine the minimal fungicidal concentration (MFC), 10 μL from the wells without visible growth was transferred onto SD agar ([Espinel-Ingroff et al., 2002]), and incubated at 37°C for 48 h. The MFC was determined as the lowest concentration capable of reducing the CFU counts to zero.

[5] = C. neoformans 1172, treated 24 h
[6] = C. neoformans ATCC 34872, treated 24 h
[7] = Cryptococcus neoformans, 72 h, C. neoformans 1172; planktonic cells; 72 h; read-out: MIC
[8] = Cryptococcus neoformans, 72 h, C. neoformans 90889; planktonic cells; 72 h; read-out: MIC
[9] = Cryptococcus neoformans, 72 h, C. neoformans CN01; planktonic cells; 72 h; read-out: MIC
[10] = Cryptococcus neoformans, 72 h, C. neoformans CN12; planktonic cells; 72 h; read-out: MIC
[11] = Cryptococcus neoformans, ATCC34872, 72 h, C. neoformans ATCC 34872; planktonic cells; 72 h; read-out: MIC
[12] = Cryptococcus neoformans, ATCC66031, 72 h, C. neoformans ATCC 66031; planktonic cells; 72 h; read-out: MIC

In the case of `C[C@@H]1[C@H](O)[C@@H](C)/C=C/C=C/C=C/C=C/C=C/C=C/C=C/[C@H](O[C@@H]2O[C@H](C)[C@@H](O)[C@H](N)[C@@H]2O)C[C@@H]2O[C@](O)(C[C@@H](O)C[C@@H](O)[C@H](O)CC[C@@H](O)C[C@@H](O)CC(=O)O[C@H]1C)C[C@H](O)[C@H]2C(=O)O` [Amphotericin B, amphotericin B], the SMIC80 [1, 5] is reported as 1.0 µg/mL, the SMIC80 [1, 6] is reported as 1.0 µg/mL and the capsule size (Cryptococcus neoformans [2]) is reported as “significant reduction”. The cell size (Cryptococcus neoformans [2]) was “significant reduction”, the “reduction in SMIC80 value in combination” value ([3]; 1172 strain) was 8 fold and the “reduction in SMIC80 value in combination” value ([3]; ATCC 34872) was 8 fold. The MIC (Cryptococcus neoformans [4]; C. neoformans 1172; planktonic cells; 72 h; listed as AmB) was 0.25 µg/mL (≈ 0.271 µM), the MFC (Cryptococcus neoformans [4]; C. neoformans 90889; planktonic cells; 72 h) was 0.5 µg/mL (≈ 0.541 µM) and the MIC (Cryptococcus neoformans [4]; C. neoformans ATCC 34872; planktonic cells; 72 h; listed as AmB) was 0.25 µg/mL (≈ 0.271 µM). The MFC (Cryptococcus neoformans [4]; C. neoformans CN01; planktonic cells; 72 h) was 0.5 µg/mL (≈ 0.541 µM), the MFC (Cryptococcus neoformans [4]; C. neoformans CN12; planktonic cells; 72 h) was 0.5 µg/mL (≈ 0.541 µM) and the MIC (Cryptococcus neoformans [4]; [7]) was 0.25 µg/mL (≈ 0.271 µM). For the same compound, the MIC (Cryptococcus neoformans [4]; [8]) was 0.25 µg/mL (≈ 0.271 µM), the MIC (Cryptococcus neoformans [4]; [9]) was 0.125 µg/mL (≈ 0.135 µM) and the MIC (Cryptococcus neoformans [4]; [10]) was 0.125 µg/mL (≈ 0.135 µM). The MIC (Cryptococcus neoformans [4]; [11]) was 0.25 µg/mL (≈ 0.271 µM), the MFC (Cryptococcus neoformans [4]; Cryptococcus neoformans, ATCC34872; C. neoformans ATCC 34872; planktonic cells; 72 h; read-out: MFC) was 0.5 µg/mL (≈ 0.541 µM) and the MIC (Cryptococcus neoformans [4]; [12]) was 0.125 µg/mL (≈ 0.135 µM). For the same compound, the MFC (Cryptococcus neoformans [4]; Cryptococcus neoformans, ATCC66031; C. neoformans ATCC 66031; planktonic cells; 72 h; read-out: MFC) was 0.5 µg/mL (≈ 0.541 µM), the MFC (Cryptococcus neoformans [4]; Cryptococcus neoformans; C. neoformans 1172; planktonic cells; 72 h; read-out: MFC) was 0.5 µg/mL (≈ 0.541 µM) and the “susceptibility of the strains to the antifungal” value (Cryptococcus neoformans [4]; epidemiological cut-off values of Espinel-Ingroff et al., 2012; all strains) was “susceptible”. The “MFC, range over all C. neoformans strains” value (Cryptococcus neoformans [4]; planktonic cells; all six strains) was 0.5 µg/mL (≈ 0.541 µM).

In the case of `CCCCNC(=S)NC(=O)c1ccccc1` [BTU-01, N-(butylcarbamothioyl) benzamide], the SMIC80 [1, 5] is reported as over 1000.0 µg/mL, the SMIC80 [1, 6] is reported as 125.0 µg/mL and the capsule size (Cryptococcus neoformans [2]) is reported as “significant reduction”. For the same compound, the cell size (Cryptococcus neoformans [2]) was “significant reduction”, the “reduction in SMIC80 value in combination” value ([3]; 1172 strain) was 128 fold and the “reduction in SMIC80 value in combination” value ([3]; ATCC 34872) was 16 fold. For the same compound, the MFC (Cryptococcus neoformans [4]; Cryptococcus neoformans, 72 h, C. neoformans 1172; planktonic cells; 72 h; read-out: MFC) was 125 µg/mL (≈ 529 µM), the MIC (Cryptococcus neoformans [4]; [7]) was 62.5 µg/mL (≈ 264 µM) and the MFC (Cryptococcus neoformans [4]; Cryptococcus neoformans, 72 h, C. neoformans 90889; planktonic cells; 72 h; read-out: MFC) was 250 µg/mL (≈ 1060 µM). For the same compound, the MIC (Cryptococcus neoformans [4]; [8]) was 62.5 µg/mL (≈ 264 µM), the MFC (Cryptococcus neoformans [4]; Cryptococcus neoformans, 72 h, C. neoformans CN01; planktonic cells; 72 h; read-out: MFC) was 500 µg/mL (≈ 2120 µM) and the MIC (Cryptococcus neoformans [4]; [9]) was 62.5 µg/mL (≈ 264 µM). The MFC (Cryptococcus neoformans [4]; Cryptococcus neoformans, 72 h, C. neoformans CN12; planktonic cells; 72 h; read-out: MFC) was over 1000 µg/mL, the MIC (Cryptococcus neoformans [4]; [10]) was 31.2 µg/mL (≈ 132 µM) and the MFC (Cryptococcus neoformans [4]; Cryptococcus neoformans, ATCC34872, 72 h, C. neoformans ATCC 34872; planktonic cells; 72 h; read-out: MFC) was 125 µg/mL (≈ 529 µM). The MIC (Cryptococcus neoformans [4]; [11]) was 62.5 µg/mL (≈ 264 µM), the MFC (Cryptococcus neoformans [4]; Cryptococcus neoformans, ATCC66031, 72 h, C. neoformans ATCC 66031; planktonic cells; 72 h; read-out: MFC) was 125 µg/mL (≈ 529 µM) and the MIC (Cryptococcus neoformans [4]; [12]) was 62.5 µg/mL (≈ 264 µM). For the same compound, the “nature of the antifungal effect” value (Cryptococcus neoformans [4]; from MIC and MFC; all strains) was “fungistatic effect”.
